The source of these data is patent publication US20130130909A1, “DCMU RESISTANCE IN NANNOCHLOROPSIS” (priority 2011, published 2013).

For experiment [1], the system named is algae of genus Chlorella. As to the kind of experiment: DCMU and fluorescence under low actinic light, Chlorella culture. The class given is cell-based. The conditions noted are these: 100 nanomolar DCMU. From the text: (§1) FIG. 3 (“FIG. 3”) is a graph of relative fluorescence rise versus percentage contaminating species for the algae of genus Chlorella as referred to in FIG. 2. In FIG. 3, the impact of the actinic light is seen in the relative fluorescence rise to the maximum fluorescence yield observed during an intense saturating pulse, during the low level actinic light treatment for the Chlorella culture, the same rise being absent from the Nannochloropsis culture.

Experiment [2] concerns algae of genus Nannochloropsis ("W2"). As to the kind of experiment: DCMU incubation and fluorescence under low actinic light, Nannochloropsis culture. The class given is cell-based. Particulars: 100 nanomolar DCMU. On the procedure:
Typically, DCMU is instantaneously efficacious at concentrations in the 0.1 micromolar to 50 micromolar range. The inventors herein discovered that algae of the genus Nannochloropsis, however, generally requires higher concentrations and relatively lengthy incubation periods for the effects of DCMU to take place.
as §1

The test system of experiment [3] is weed algae of genus Tetraselmis. Description: DCMU administered to 1 million liter open pond raceway systems with Nannochloropsis cultures invaded by Tetraselmis. Type of experiment: in vivo. On the procedure:
The inventors utilized commercially available DCMU at a field research site to kill the persistent weed algae of genus Tetraselmis. DCMU was administered to six 1 million liter open pond raceway systems wherein Nannochloropis cultures were cultivated at a density of approximately 270 milligrams per liter. Tetraselmis invasion in the ponds is shown in FIG. 6, and is quantified in Table 2 as a percentage of mass. The higher the percentage of mass, the higher the Tetraselmis invasion. The six 1 million liter open pond raceway systems are denoted in FIG. 6, Table 1, and Table 2 as Pond A1, Pond A2, Pond A3, Pond B1, Pond B2, and Pond B3.
Consequently, as little as 100 grams, and as much as 400 grams, were needed. The commercial DCMU source was 90% DCMU by mass, so 90 grams and 360 grams effective amounts of DCMU (M.W. 233 amu) in 1 million liters of volume converts to DCMU concentrations of 0.38 micromolar and 1.55 micromolar, respectively.
Note “D” denotes the dumping of the contents of the pond.

The mark [4] stands for this setting: corrected for 90% DCMU by mass, 1 million liters.

Molecules are shown by their SMILES.

In the case of `CN(C)C(=O)Nc1ccc(Cl)c(Cl)c1` [DCMU, 3-(3,4-dichlorophenyl)-1,1-dimethylurea], the “effect of actinic light on PSII reaction centers in presence of DCMU, Chlorella” value in experiment [1] (50 micromolar quanta m^-2 s^-1 actinic light, FIG. 2) is recorded as “completely closes PSII reaction centers”. The “herbicidal effect on Chlorella” value in experiment [1] (Chlorella isolated from an invaded pond) was “strong herbicidal effect”. Moreover, the “resistance of Nannochloropsis to DCMU” value in experiment [2] (24 hour incubation period) was “completely resistant”. The “effect of actinic light on PSII reaction centers in presence of DCMU, Nannochloropsis” value in experiment [2] (50 micromolar quanta m^-2 s^-1 actinic light, FIG. 1) is on record as “barely has an effect”. Besides, the “effective DCMU concentration, lowest” value in experiment [3] (90 grams in 1 million liters) is 0.38 µM. The “effective DCMU concentration, highest” value in experiment [3] (360 grams in 1 million liters) was 1.55 µM. In experiment [3] (setting [4]), the “effective amount of DCMU, highest” value was found to be 360 grams and the “effective amount of DCMU, lowest” value is recorded as 90 grams.
